Results on two substances are retold here after EP3189850A1, “LIVER TARGETING OF CYCLIC PRES-DERIVED PEPTIDES OF HBV” (Ruprecht-Karls-Universität Heidelberg, priority 2015, dated 2017).

Bridge positions count the residues as written; N and C are the ends. Square brackets hold non-standard residues; d marks the D form. Ends that are not written are not given here. * marks the point of attachment. Myristoyl = CCCCCCCCCCCCCC(=O)*

Data set [1] is described as follows: Biodistribution and γ-camera imaging of the 125I-labeled peptide (Figure 4). The class given is in vivo. The following applies: γ-camera / biodistribution in NMRI mice.
Another data set deals with T1, NTCP (Mus musculus, UniProt O08705).
T1 construct: from tissue; host or cells: liver of healthy mice, in vivo imaging
T1 sequence (O08705 1-362): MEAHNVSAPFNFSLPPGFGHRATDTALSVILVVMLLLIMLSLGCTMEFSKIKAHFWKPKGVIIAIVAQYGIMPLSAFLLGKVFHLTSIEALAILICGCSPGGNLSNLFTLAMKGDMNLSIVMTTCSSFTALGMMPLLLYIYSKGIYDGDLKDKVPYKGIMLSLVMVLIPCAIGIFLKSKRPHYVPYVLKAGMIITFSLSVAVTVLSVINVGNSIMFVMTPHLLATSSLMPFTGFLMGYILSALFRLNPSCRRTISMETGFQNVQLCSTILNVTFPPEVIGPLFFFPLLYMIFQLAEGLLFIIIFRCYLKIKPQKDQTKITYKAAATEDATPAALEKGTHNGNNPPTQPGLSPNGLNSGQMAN
The experiment in a line: Scintigraphic imaging (125I) and MicroPET (68Ga) of labelled peptides with and without excess of Myrcludex B (Figure 3). Type of data set: in vivo. Particulars: healthy mice; labelled peptide with and without excess of Myrcludex B; 20 and 120 min p.i. As for the experimental part:
Ca. 1 mL of [^68Ga]Ga^3+ eluate (ca. 600-800 MBq) was added to a mixture of 20 µL of a 1mM solution of compound xy in DMSO and 10 µL of saturated solution of ascorbic acid in water. The pH of the resulting mixture was adjusted to 3.5-4.0 by careful addition of a 2.5 M sodium acetate solution in water. Complexation was achieved by heating to over 95°C for 5-10 minutes under constant stirring. The product was isolated by solid phase extraction with ethanol followed by evaporation. The residue was taken up in 1% bovine serum albumin solution and an appropriate amount (ca. 20-50 MBq) was used for the individual experiment in a volume not exceeding 100 µl. Mice were anesthetized with 1% sevoflurane (Abbott, Wiesbaden, Germany) and images were recorded using an Inveon small animal positron emission tomographic (PET) scanner (Siemens, Knoxville, TN) up to 60 minutes postinjection.

Turning to myr-cyclo-intra[NP^*LGFFPDy], in data set [1], the “elimination via the intestine (time)” value is no more than 2 h and the liver accumulation result is “accumulates rapidly in the liver”.
As for “myr-cyclo[CNPLGFFPDC]y (Myristoyl-CNPLGFFPDC[dY]; disulfide 1-10; also: 125I-labelled) [cyclo[9-16]myr, myristoylated Cys-HBVpreS9-16-Cys-D-Tyr cyclized via disulfide bridge of the two cysteines]”, the “accumulation in the liver” value with NTCP is recorded as “NTCP specific accumulation in the liver”.
